From paper PMC7835927, “Natural Polyhydroxy Flavonoids, Curcuminoids, and Synthetic Curcumin Analogs as α7 nAChRs Positive Allosteric Modulators” (International Journal of Molecular Sciences, 2021)
Where two headings read alike, the source gives them in different places.

Legend:
human α7 nAChRs = target: T1, human α7 nAChRs (Homo sapiens, UniProt P36544); assay: Two-electrode voltage-clamp in Xenopus oocytes expressing human α7 nAChRs: potentiation of ACh-evoked currents; type: cell-based; conditions: for nH of ACh concentration-response curve / Imax of ACh concentration-response curve / maximal potentiating effect: Hill fit; for activity at 10 µM: read-out: % ± s.e. Current vs. ACh [200 µM]; for % ± s.e. Current vs. ACh [200 µM]: Table 1; for % ± s.e. Current vs. ACh [200 µM] / % ± s.e. Current Vs. ACh [200 µM]: compound 10 µM co-applied with 200 µM ACh, −80 mV, normalized to ACh alone, 6–10 oocytes; for maximal potentiating effect: concentration-response, co-applied with ACh 200 µM, estimated; for % ± s.e. Current Vs. ACh [200 µM]: Table 2; for PAM properties / effect on ACh-induced currents, in words: 10 µM screening
T1 construct: expressed in transfected cells; host or cells: Xenopus laevis oocytes injected with in vitro transcribed capped cRNA (pSP64T derivatives)
Description: The obtained compounds were screened to determine their capacity to modulate the α7 nAChR activity (Table 2).
All human nAChR cDNAs were cloned in derivatives of the pSP64T vector containing part of the pBluescript polylinker. Capped mRNA was synthesized in vitro using SP6 RNA polymerase, the mMESSAGEmMACHINE kit from Ambion (Thermo Fisher Scientific, Madrid, Spain), and the pSP64T derivatives mentioned above. Defoliculated Xenopus laevis oocytes were injected with 5 ng of each subunit cRNA in 50 nL of sterile water. All experiments were performed within 2–3 days after cRNA injection. […] Barium, instead of calcium, was used as the extracellular divalent cation to avoid the presence of calcium-activated chloride currents. […] All experiments were performed at 22 °C. The holding potential was usually −80 mV. Current records were measured with Clampfit 10.0 (MDS Analytical Technologies, Sunnyvale, CA, USA). […] Data are expressed as mean ± SEM. All chemicals were purchased from Sigma-Aldrich (St. Louis, MO, USA).

α7 nAChRs = conditions: cited from earlier work; for reported profile on ACh-evoked α7 nAChR currents in oocytes: oocytes expressing α7 nAChRs
[1] = Solubility as noted in the concentration-response experiments; type: physicochemical; conditions: hindered the use of higher concentrations in the curves
Description: Figure 1 Characterization of curcumin (12) and two curcuminoids (compounds 13 and 14). (a–c) Ionic currents recorded in representative oocytes expressing human α7 nAChRs. […] All currents were recorded at a holding potential of –80 mV. […] Continuous lines represent the fit to the Hill equation. […] Thus, maximal potentiating effects were estimated as 11 ± 3-, 5.5 ± 0.3-, and 5.5 ± 1.0-fold for compounds 12, 13, and 14, respectively. […] Data were taken from 3–7 oocytes from at least 2 donors.

[2] = Chemical stability in H2O/acetonitrile 20/80 checked by HPLC; type: physicochemical; conditions: period of two months
Excerpt: To discard any possible artefacts due to decomposition of the compounds in solution, the chemical stability of the best compounds 17, 23, and 25 was checked in aqueous mixtures of H2O/acetonitrile 20/80 for a period of two months.

[3] = read-out: EC50 of potentiating effect
[4] = in the presence of compound 13 vs absence

T1 sequence (P36544 23-502): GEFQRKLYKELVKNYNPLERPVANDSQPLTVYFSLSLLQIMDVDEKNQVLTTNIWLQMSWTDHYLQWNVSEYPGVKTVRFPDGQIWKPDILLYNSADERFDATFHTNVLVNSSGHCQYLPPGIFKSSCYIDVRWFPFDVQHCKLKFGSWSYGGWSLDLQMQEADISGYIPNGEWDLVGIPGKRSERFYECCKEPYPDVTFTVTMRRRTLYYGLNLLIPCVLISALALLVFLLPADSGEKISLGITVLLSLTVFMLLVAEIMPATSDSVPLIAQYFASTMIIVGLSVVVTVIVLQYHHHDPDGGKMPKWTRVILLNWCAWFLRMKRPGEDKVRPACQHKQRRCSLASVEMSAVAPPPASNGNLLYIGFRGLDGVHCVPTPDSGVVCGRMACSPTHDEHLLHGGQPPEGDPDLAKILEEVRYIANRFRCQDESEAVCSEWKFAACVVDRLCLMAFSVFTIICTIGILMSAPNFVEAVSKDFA

CC(=O)OCC[N+](C)(C)C [ACh, acetylcholine]
nH of ACh concentration-response curve (human α7 nAChRs; control conditions (ACh alone)): 1.25 | Imax of ACh concentration-response curve (human α7 nAChRs; control conditions (ACh alone), normalized to peak current with 1 mM ACh): 1.25

O=c1cc(-c2ccc(O)cc2)oc2cc(O)cc(O)c12 [Compound 1, Apigenin]
activity at 10 µM (human α7 nAChRs): 108 ± 4%

O=c1c(O)c(-c2ccc(O)c(O)c2)oc2cc(O)cc(O)c12 [Compound 2, Quercetin]
% ± s.e. Current vs. ACh [200 µM] (human α7 nAChRs): 130 ± 10% | reported profile on ACh-evoked α7 nAChR currents in oocytes (α7 nAChRs): PAM profile

O=c1cc(-c2ccc(O)c(O)c2)oc2cc(O)cc(O)c12 [Compound 3, Luteolin]
activity at 10 µM (human α7 nAChRs): 125 ± 5.5%

O=c1c(-c2ccc(O)cc2)coc2cc(O)cc(O)c12 [Compound 4, Genistein]
activity at 10 µM (human α7 nAChRs): 154 ± 10% | reported profile on ACh-evoked α7 nAChR currents in oocytes (α7 nAChRs): PAM profile

O=c1c(O)c(-c2ccc(O)c(O)c2)oc2c(O)c(O)cc(O)c12 [Compound 5, Gossypetin]
activity at 10 µM (human α7 nAChRs): 115 ± 2%

O=c1c(O)c(-c2ccc(O)cc2)oc2cc(O)cc(O)c12 [Compound 6, Kaempferol]
activity at 10 µM (human α7 nAChRs): 155 ± 5%

O=c1c(O)c(-c2cc(O)c(O)c(O)c2)oc2cc(O)cc(O)c12 [Compound 7, Myricetin]
activity at 10 µM (human α7 nAChRs): 97 ± 6%

O=C1C[C@@H](c2ccc(O)c(O)c2)Oc2cc(O)cc(O)c21 [Compound 8, Eriodictyol]
activity at 10 µM (human α7 nAChRs): 108 ± 2.5%

O=C1C[C@@H](c2ccc(O)cc2)Oc2cc(O)cc(O)c21 [Compound 9, Naringenin]
activity at 10 µM (human α7 nAChRs): 105 ± 3%

O=C1c2c(O)cc(O)cc2OC(c2ccc(O)c(O)c2)C1O (stereo not drawn) [Compound 10, Taxifolin]
activity at 10 µM (human α7 nAChRs): 107 ± 5.5%

O=C(CCc1ccc(O)cc1)c1c(O)cc(O)cc1O [Compound 11, Phloretin]
activity at 10 µM (human α7 nAChRs): 231 ± 0.5%

COc1cc(/C=C/C(=O)CC(=O)/C=C/c2ccc(O)c(OC)c2)ccc1O [Compound 12, Curcumin]
maximal potentiating effect (human α7 nAChRs): 11 ± 3 fold | enhancement of ACh-induced currents (human α7 nAChRs; maximal effect from concentration-response, only approximated): ~1100% | activity at 10 µM (human α7 nAChRs): 148 ± 43% | EC50 (human α7 nAChRs; [3]): 85 ± 35 µM | reported type of α7 nAChR modulation (α7 nAChRs): Type II PAM | solubility, in words [1]: Limited solubility

COc1cc(/C=C/C(O)=C/C(=O)/C=C/c2ccc(O)cc2)ccc1O [Compound 13, Demethoxycurcumin]
EC50 (human α7 nAChRs): 4.9 µM | % ± s.e. Current vs. ACh [200 µM] (human α7 nAChRs): 408 ± 18% | maximal potentiating effect (human α7 nAChRs): 5.5 ± 0.3 fold | nH of ACh concentration-response curve (human α7 nAChRs; in the presence of 3 µM 13): 2.36 | Imax of ACh concentration-response curve (human α7 nAChRs; in the presence of 3 µM 13, normalized to control peak current with 1 mM ACh): 2.70 | increase in apparent efficacy of ACh (human α7 nAChRs; [4]): 2 fold | leftward shift of ACh dose-response curve (human α7 nAChRs; [4]): 3 fold | activity at 10 µM (human α7 nAChRs): 408% | solubility, in words [1]: Limited solubility

O=C(/C=C/c1ccc(O)cc1)CC(=O)/C=C/c1ccc(O)cc1 [Compound 14, Bisdemethoxycurcumin]
% ± s.e. Current vs. ACh [200 µM] (human α7 nAChRs): 469 ± 42% | maximal potentiating effect (human α7 nAChRs): 5.5 ± 1.0 fold | activity at 10 µM (human α7 nAChRs): 469% | EC50 (human α7 nAChRs; [3]): 6.9 ± 3.1 µM | solubility, in words [1]: Limited solubility

COc1ccc(/C=C/C(=O)/C=C(O)/C=C/c2ccc(OC)cc2OC)c(OC)c1 [Compound 17, (1E,4Z,6E)-1,7-Bis(2,4-dimethoxyphenyl)-5-hydroxyhepta-1,4,6-trien-3-one]
chemical stability in solution (HPLC retention times and purity) [2]: no alteration on the retention times and purity

COc1ccc(CCC(=O)/C=C(\O)CCc2ccc(OC)cc2OC)c(OC)c1 [Compound 23, (Z)-1,7-Bis(2,4-dimethoxyphenyl)-5-hydroxyhept-4-en-3-one]
% ± s.e. Current Vs. ACh [200 µM] (human α7 nAChRs): 498 ± 7% | Maximal activation over the control (human α7 nAChRs; already observed at 1 µM, ACh 200 µM): about 3 fold | EC50 (human α7 nAChRs; [3]): 0.44 ± 0.28 µM | chemical stability in solution (HPLC retention times and purity) [2]: no alteration on the retention times and purity

O=C(/C=C(\O)CCc1ccc(O)cc1O)CCc1ccc(O)cc1O [Compound 25, (Z)-1,7-Bis(2,4-dihydroxyphenyl)-5-hydroxyhept-4-en-3-one]
% ± s.e. Current Vs. ACh [200 µM] (human α7 nAChRs): 251 ± 24% | chemical stability in solution (HPLC retention times and purity) [2]: no alteration on the retention times and purity

(1E, 4Z, 6E) -1-(2,4-Dimethoxyphenyl)-7-(2-fluoro-4-methoxyphenyl)-5-hydroxyhepta-1,4,6 -trien-3-one [Compound 22]
PAM properties / effect on ACh-induced currents, in words (human α7 nAChRs; ACh 200 µM): increases them only slightly | % ± s.e. Current Vs. ACh [200 µM] (human α7 nAChRs): 153 ± 17%

(1E, 4Z, 6E)-1-(2,4-Dimethoxyphenyl)-7-(2,5-dimethoxyphenyl)-5-hydroxyhepta-1,4,6-trien-3-one [Compound 21]
PAM properties / effect on ACh-induced currents, in words (human α7 nAChRs; ACh 200 µM): No significant PAM properties | % ± s.e. Current Vs. ACh [200 µM] (human α7 nAChRs): 107 ± 4%

(Z)-1-(2,4-Dimethoxyphenyl)-7-(2,5-dimethoxyphenyl)-5-hydroxyhept-4-en-3-one [Compound 24]
PAM properties / effect on ACh-induced currents, in words (human α7 nAChRs; ACh 200 µM): No significant PAM properties | % ± s.e. Current Vs. ACh [200 µM] (human α7 nAChRs): 53.5 ± 3.5%
